{"source": "patent US6117661A", "about": "“Mutant mono-oxygenase cytochrome P450cam” (BG plc, priority 1995, dated 2000)", "key": {"P-450cam mutant Y96A": {"target": "T1, P-450cam mutant Y96A (Pseudomonas putida, UniProt P00183, Y97A)", "T1 construct": "made in house; host or cells: E. coli JM109, vector pRH1091", "assay": "Substrate binding constant Kapp, method of Sligar", "excerpt": "(§1) Binding of potential substrates was investigated by spectroscopic methods. […] This haem spin-state shift is accompanied by an increase in the haem reduction potential which enables the physiological electron-transfer partner putidaredoxin to reduce P-450cam and initiate the catalytic hydroxylation cycle^26. The haem spin state shift is thus a qualitative indication of the likelihood of molecules shown in Tables 1 and 2 being oxidised by the wild-type and mutant P-450cam enzymes.\n(§2) ^a Values are the average of two independent measurements using the\n(§3) method of Sligar (S. G. Sligar, Biochemistry, 1976, 15, 5399-5406). The\n(§4) value of Kapp is strongly dependent on the concentration of K^+\n(§5) in the buffer. At [K^+ ] > 150 mM, Kapp for camphor is 0.6 μM\n(§6) for both wildtype and Y96A. Data in this table were determined at [K^\n(§7) ] = 70 mM in phosphate buffer, pH 7.4, in order to avoid # salting out o\n(§8) substrates at higher ion concentrations."}, "Wild type P450cam [1]": {"target": "T2, Wild type P450cam (Pseudomonas putida, UniProt P00183)", "type": "binding, P. putida", "conditions": "Soret band 418 nm to 392 nm"}, "Wild type P450cam [2]": {"target": "T2, Wild type P450cam", "assay": "Substrate binding constant Kapp, method of Sligar", "set-up": "made in house; host or cells: E. coli JM109, vector pRH1091", "excerpt": "as §1, §2, §3, §4, §5, §6, §7, §8"}, "P450cam Mutant Y96A": {"target": "P450cam Mutant Y96A (Pseudomonas putida, UniProt P00183, C335A/Y97A)", "type": "binding, P. putida"}, "[3]": {"target": "T3, P450cam active site mutant Y96F (also C334A) (Pseudomonas putida, UniProt P00183, C335A/Y97F)", "T3 construct": "reconstituted with putidaredoxin and putidaredoxin reductase", "type": "biochemical, P. putida", "conditions": "substrate phenanthrene", "description": "(§9) A buffered solution (50 mM Tris.HCI, pH 7.4), typically 3 ml in volume, containing 10 uM putidaredoxin, 2 uM putidaredoxin reductase, 1 uM cytochrome P-450cam mono-oxygenase (wild-type or mutant), 200 mM KCI, 50 ug/ml bovine liver catalase (Sigma), and 1 mM target organic compound such as cyclohexylbenzene (added as a 0.1 M stock in ethanol) was preincubated at 30° C. for 5 minutes. The enzymatic reaction was initiated by adding NADH to a total concentration of 2 mM. Further four aliquots of NADH (to increase the NADH concentration by 1 mM each time) were added in intervals of 10 minutes, and 30 minutes into the incubation one aliquot of substrate (to increase the concentration by 1 mM) was also added. The reaction was quenched after 60 minutes by adding 0.5 ml chloroform and vortexing the mixture. The phases were separated by centrifugation (4000 g) at 4° C. The chloroform layer was analyzed by gas chromatography.\n(§10) For many substrate compounds such as cyclohexylbenzene for which not all the P-450cam-mediated oxidation products are commercially available, the chloroform extracts are evaporated to dryness under a stream of nitrogen. The residues were extracted with hexane and the oxidation products separated by high performance liquid chromatography, eluting with a hexane/isopropanol gradient. The purified products were then identified by mass spectroscopy and particularly nuclear magnetic resonance spectroscopy.\n(§11) The NADH concentration can be monitored at 340 nm and, in all cases, more substrates and NADH are added during the incubation."}, "[4]": {"target": "T4, P450cam active site mutant Y96V (also C334A) (Pseudomonas putida, UniProt P00183, C335A/Y97V)", "T4 construct": "reconstituted with putidaredoxin and putidaredoxin reductase", "type": "biochemical, P. putida", "conditions": "substrate phenanthrene", "description": "as §9, §10, §11"}, "[5]": {"target": "T5, P450cam active site mutant Y96L (also C334A) (Pseudomonas putida, UniProt P00183, C335A/Y97L)", "T5 construct": "reconstituted with putidaredoxin and putidaredoxin reductase", "type": "biochemical, P. putida", "conditions": "substrate phenanthrene", "description": "as §9, §10, §11"}, "[6]": {"target": "T6, P450cam active site mutant F87A-F96G-F193A (Pseudomonas putida, UniProt P00183, C335A/F194A/F88A/Y97G)", "T6 construct": "reconstituted with putidaredoxin and putidaredoxin reductase", "type": "biochemical, P. putida", "conditions": "substrate phenanthrene", "description": "as §9, §10, §11"}, "[7]": {"target": "T7, P450cam active site mutant Y96A (also C334A) (Pseudomonas putida, UniProt P00183, C335A/Y97A)", "T7 construct": "reconstituted with putidaredoxin and putidaredoxin reductase", "type": "biochemical, P. putida", "conditions": "substrate phenanthrene", "description": "as §9, §10, §11"}, "P450cam WT": {"target": "T8, P450cam WT (Pseudomonas putida, UniProt P00183)", "T8 construct": "reconstituted with putidaredoxin and putidaredoxin reductase", "assay": "Product distribution following oxidation of substrates (GC)", "type": "biochemical, P. putida", "conditions": "substrate phenanthrene", "description": "as §9, §10, §11"}}, "data": [{"smiles": "CC12CCC(CC1=O)C2(C)C", "note": "(single isomer, unassigned) [camphor]", "values": [{"measurement": "Kd", "setting": "P-450cam mutant Y96A", "result": 600, "unit": "nM"}, {"measurement": "haem spin-state conversion on substrate binding", "setting": "Wild type P450cam [1]", "result": "fully converted the haem to the 5-co-ordinated, high-spin form"}, {"measurement": "Kd", "setting": "Wild type P450cam [2]", "result": 600, "unit": "nM"}]}, {"smiles": "c1ccc2c(c1)ccc1ccccc12", "note": "[Phenanthrene]", "values": [{"measurement": "Mutant Y96A Vs DTT", "setting": "P450cam Mutant Y96A", "result": 20}, {"measurement": "Mutant Y96A ΔSpin high/low", "setting": "P450cam Mutant Y96A; -- = no shift, nd = not determined", "result": 20}, {"measurement": "Total products Y96F", "setting": "[3]", "result": 4.5, "unit": "area/10^6"}, {"measurement": "Total products Y96V", "setting": "[4]", "result": 1.6, "unit": "area/10^6"}, {"measurement": "Total products Y96L", "setting": "[5]", "result": 2.8, "unit": "area/10^6"}, {"measurement": "Total products F87A-F96G-F193A", "setting": "[6]", "result": 0.065, "unit": "area/10^6"}, {"measurement": "Total products Y96A", "setting": "[7]", "result": 7.0, "unit": "area/10^6"}, {"measurement": "Total products WT", "setting": "P450cam WT", "result": 0.075, "unit": "area/10^6"}]}]}
